According to PMC8074792, “An ω-3, but Not an ω-6 Polyunsaturated Fatty Acid Decreases Membrane Dipole Potential and Stimulates Endo-Lysosomal Escape of Penetratin” (Frontiers in Cell and Developmental Biology, 2021):

How the values were obtained:
Assay type in all cases: cell-based, human
JY cells [1] = test: Membrane dipole potential, di-8-ANEPPS excitation ratio, spectrofluorometry; conditions: fatty acid 12.5-50 μM for 48 h, result at maximal 50 μM, n = 5
Method: (§1) The human acute monocytic leukemia-derived cell line THP-1 and the human Epstein-Barr virus (EBV) transformed lymphoblastoid cell line JY were obtained from the American Type Culture Collection (Manassas, VA, United States) and cultivated according to their specifications. […] As controls, cells were treated with the corresponding amounts of native MβCD complexes not containing sterols. To study the effects of fatty acids, cells were incubated for 48 h in medium supplemented with saturated stearic acid (SA, Sigma Aldrich), ω-3 polyunsaturated α-linolenic acid (ALA, Sigma Aldrich) or ω-6 polyunsaturated γ-linolenic acid (GLA, Sigma Aldrich) at various concentrations ranging from 12.5 to 50 μM. […] After washing, cells were kept on ice and samples were subsequently warmed to 37°C right before measurements carried out with a Fluorolog-3 spectrofluorometer (Horiba Jobin Yvon, Edison, NJ, United States). During measurements, the cuvette holder was kept at 37°C using a circulating water bath. Excitation spectra were recorded between 380 and 550 nm with the detected emission wavelength set to 660 nm in order to minimize effects of possible changes in membrane fluidity ([Clarke and Kane, 1997]). The ratio of fluorescence intensities integrated between excitation wavelengths 410–440 nm and 490–520 nm was calculated for each sample, which positively correlates with the magnitude of DP ([Clarke and Kane, 1997]; [Kovacs et al., 2017]; [Batta et al., 2020]).

THP-1 cells [2] = test: as above; conditions: fatty acid 12.5-50 μM for 48 h, result at maximal 50 μM, n = 5
Method: as §1

JY cells [3] = test: Membrane hydration, PY3174 generalized polarization, confocal microscopy; conditions: 200 μM sterol 1 h or 50 μM fatty acid 48 h, efficacy order 6KC > cholesterol ≥ 7DHC, effects of 7DHC and SA not statistically significant
Method: (§2) For these measurements, cells were labeled with 10 μM PY3174 for 20 min at room temperature. […] During processing, segmentation of images into membrane and non-membrane pixels was carried out with the manually seeded watershed algorithm using a custom-written MATLAB program as described previously ([Kovacs et al., 2017]). The average value of general polarization correlating with the degree of membrane compactness ([[…] et al., 2013]) was calculated from the data of cell membrane pixels after background subtraction using […]

THP-1 cells [4] = test: as above; conditions: 200 μM sterol 1 h or 50 μM fatty acid 48 h, efficacy order 6KC > cholesterol ≥ 7DHC, all statistically significant
Method: as §2

| Structure (SMILES) | Rexc, di-8-ANEPPS (JY cells [1]) | Rexc, di-8-ANEPPS (THP-1 cells [2]) | PY3174 generalized polarization in the cell membrane (inversely correlates with membrane hydration) (JY cells [3]) | PY3174 generalized polarization in the cell membrane (inversely correlates with membrane hydration) (THP-1 cells [4]) |
| --- | --- | --- | --- | --- |
| CC/C=C\C/C=C\C/C=C\CCCCCCCC(=O)O [ALA, α-linolenic acid] | significantly decreased | significantly decreased | reduced | reduced |
| CCCCC/C=C\C/C=C\C/C=C\CCCCC(=O)O [GLA, γ-linolenic acid] | significant increases | significant increases | reduced | reduced |
